Key:
Format in all cases: physicochemical
[1] = Lipid nanoparticle size and polydispersity by dynamic light scattering (Malvern Zetasizer Nano ZS); conditions: LNP encapsulating hEPO mRNA; table of Example 16
Description: (§1) Briefly, a cationic lipid provided herein, DSPC, cholesterol, and PEG-lipid were solubilized in ethanol at a molar ratio of 50:10:38.5:1.5, and mRNA were diluted in 10 to 50 mM citrate buffer, pH=4. The LNPs were prepared at a total lipid to mRNA weight ratio of approximately 10:1 to 30:1 by mixing the ethanolic lipid solution with the aqueous mRNA solution at a volume ratio of 1:3 using a microfluidic apparatus, total flow rate ranging from 9-30 mL/min. Ethanol were thereby removed and replaced by DPBS using dialysis. Finally, the lipid nanoparticles were filtered through a 0.2 μm sterile filter.
(§2) Lipid nanoparticle size were determined by dynamic light scattering using a Malvern Zetasizer Nano ZS (Malvern UK) using a 173° backscatter detection mode. The encapsulation efficiency of lipid nanoparticles were determined using a Quant-it Ribogreen RNA quantification assay kit (Thermo Fisher Scientific, UK) according to the manufacturer's instructions.

[2] = Encapsulation efficiency of lipid nanoparticles (Quant-it Ribogreen RNA quantification assay); conditions: LNP encapsulating hEPO mRNA; table of Example 16
Description: as §1, §2

[3] = Apparent pKa of LNP formulations by TNS fluorescence assay; conditions: LNP cationic lipid/DSPC/cholesterol/DMG-PEG 50/10/38.5/1.5 mol %, table of Example 16
Description: As reported in literature, the apparent pKa of LNP formulations correlates with the delivery efficiency of LNPs for nucleic acids in vivo. The apparent pKa of each formulation was determined using an assay based on fluorescence of 2-(p-toluidino)-6-napthalene sulfonic acid (TNS). LNP formulations comprising of cationic lipid/DSPC/cholesterol/DMG-PEG (50/10/38.5/1.5 mol %) in PBS were prepared as described above. TNS was prepared as a 300 uM stock solution in distilled water. LNP formulations were diluted to 0.1 mg/ml total lipid in 3 mL of buffered solutions containing 50 mM sodium citrate, 50 mM sodium phosphate, 50 mM sodium borate, and 30 mM sodium chloride where the pH ranged from 3 to 9. An aliquot of the TNS solution was added to give a final concentration of 0.1 mg/ml and following vortex mixing fluorescence intensity was measured at room temperature in a Molecular Devices Spectramax iD3 spectrometer using excitation and mission wavelengths of 325 nm and 435 nm. A sigmoidal best fit analysis was applied to the fluorescence data and the pKa value was measured as the pH giving rise to half-maximal fluorescent intensity.

Structure (SMILES) | polydispersity [1] | size (nm) [1] | Encapsulation Efficiency [2] | Apparant Pka [3]
CCCCC/C=C\C/C=C\CCCCCCCC(=O)OCC(COC(=O)CCCC(COC(=O)CCCCCCC)COC(=O)CCCCCCC)COC(=O)OCCN(CCO)C1CCCCC1 (centres unmarked) [Compound 8] | 0.049 | 63.20 nm | 85.90% | 
CCCCCCCCCCCCCCCCCC(=O)OCC(COC(=O)CCCCN(CCC)CCO)COC(=O)CCC(=O)OCC(COC(=O)CCCCCCC)COC(=O)CCCCCCC (centres unmarked) [Compound 98] | 0.207 | 102.92 nm | 83.41% | 7.14
CCCCC/C=C\C/C=C\CCCCCCCC(=O)OCC(COC(=O)CCCC(COC(=O)CCCCCCC)COC(=O)CCCCCCC)COC(=O)OCCCN(CCO)C1CCC1 (centres unmarked) [Compound 34] | 0.049 | 82.63 nm | 89.00% | 6.307
C=CCN(CCO)CCCOC(=O)OCC(COC(=O)CCCCCCC/C=C\C/C=C\CCCCC)COC(=O)CCCC(COC(=O)CCCCCCC)COC(=O)CCCCCCC (centres unmarked) [Compound 88] |  |  |  | 5.905
CCCCC/C=C\C/C=C\CCCCCCCC(=O)OCC(COC(=O)CCOC(COC(=O)CCCCCCC)COC(=O)CCCCCCC)COC(=O)OCCCN(CC)CC (centres unmarked) [Compound 3] | 0.121 | 88.27 nm | 89.46% | 6.649
C/C=C/CN(CCO)CCCOC(=O)OCC(COC(=O)CCCCCCC/C=C\C/C=C\CCCCC)COC(=O)CCCC(COC(=O)CCCCCCC)COC(=O)CCCCCCC (centres unmarked) [Compound 94] |  |  |  | 6.192
CCCCC/C=C\C/C=C\CCCCCCCC(=O)OCC(COC(=O)CCCC(COC(=O)CCCCCCC)COC(=O)CCCCCCC)COC(=O)OCCN(CCO)C1CCCC1 (centres unmarked) [Compound 33] | 0.053 | 71.21 nm | 83.76% | 
CCCCC/C=C\C/C=C\CCCCCCCC(=O)OCC(COC(=O)CCCC(COC(=O)CCCCCCC)COC(=O)CCCCCCC)COC(=O)OCCN(CCO)C1CCC1 (centres unmarked) [Compound 12] | 0.096 | 53.68 nm | 81.79% | 
CCCCCCCCCCCC(=O)OCC(COC(=O)CCCC(COC(=O)CCCCCCC)COC(=O)CCCCCCC)COC(=O)CCN(CCO)C1CCC1 (centres unmarked) [Compound 15] | 0.043 | 90.47 nm | 93.04% | 
CCCCCCCCC(=O)OCC(COC(=O)CCCCCN(CCO)C1CCC1)COC(=O)CCCC(COC(=O)CCCCCCC)COC(=O)CCCCCCC (centres unmarked) [Compound 45] | 0.067 | 144.2 nm | 90.08% | 6.965
CCCCCCCCCCCCCCCCCC(=O)OCC(COC(=O)CCCCN(CCC)CCO)COC(=O)CCCC(COC(=O)CCCCCCC)COC(=O)CCCCCCC (centres unmarked) [Compound 83] |  |  |  | 7.232
CCCCC/C=C\C/C=C\CCCCCCCC(=O)OCC(COC(=O)CCCC(COC(=O)CCCCCCC)COC(=O)CCCCCCC)OC(=O)CCCCN(CCO)C1CCCCC1 (centres unmarked) [Compound 107] | 0.04979 | 66.11 nm | 89.61% | 6.441
CCCCC/C=C\C/C=C\CCCCCCCC(=O)OCC(COC(=O)CCCC(COC(=O)CCCCCCC)COC(=O)CCCCCCC)COC(=O)CCN(CCO)C1CCC1 (centres unmarked) [Compound 1] | 0.047 | 77.60 nm | 89.48% | 5.56
CCCCC/C=C\C/C=C\CCCCCCCC(=O)OCC(COC(=O)CCCCCCN(CCO)C1CCC1)COC(=O)CCCC(COC(=O)CCCCCCC)COC(=O)CCCCCCC (centres unmarked) [Compound 42] | 0.077 | 96.94 nm | 92.04% | 6.879
CCCCC/C=C\C/C=C\CCCCCCCC(=O)OCC(COC(=O)CCCCCCCN(CCO)C1CCC1)COC(=O)CCCC(COC(=O)CCCCCCC)COC(=O)CCCCCCC (centres unmarked) [Compound 43] | 0.04 | 95.19 nm | 93.46% | 6.766
CCCCCCCCCCCCCCCCCC(=O)OCC(COC(=O)CCCCN(CCO)CC(C)C)COC(=O)CCCC(COC(=O)CCCCCCC)COC(=O)CCCCCCC (centres unmarked) [Compound 97] |  |  |  | 6.006
CCCCCCCCCC(=O)OCC(COC(=O)CCCCN(CCO)C1CCC1)COC(=O)CCCC(COC(=O)CCCCCCC)COC(=O)CCCCCCC (centres unmarked) [Compound 47] |  |  |  | 7.217

Other lines, results leading:

polydispersity [1] | size (nm) [1] | Encapsulation Efficiency [2] | Apparant Pka [3] | Structure (SMILES)
 |  |  | 7.019 | CCCCCCCCCCCCCCCCCC(=O)OCC(COC(=O)CCCCCN(CCO)C1CCC1)COC(=O)CCCC(COC(=O)CCCCC)COC(=O)CCCCCCC (centres unmarked) [Compound 61]
0.02612 | 98.52 nm | 89.87% | 6.707 | CCCCCCCCOC(=O)CCCCCCCC(=O)OCC(COC(=O)CCCCN(CCO)C1CCCCC1)COC(=O)CCCC(COC(=O)CCCCCCC)COC(=O)CCCCCCC (centres unmarked) [Compound 104]
0.079 | 117 nm | 84.36% | 7.016 | CCCCCCCCC(=O)OCC(COC(=O)CCCCCCN(CCO)C1CCC1)COC(=O)CCCC(COC(=O)CCCCCCC)COC(=O)CCCCCCC (centres unmarked) [Compound 57]
 |  |  | 7.041 | CCCCCCCCCCCC(=O)OCC(COC(=O)CCCCCCCN(CCO)C1CCC1)COC(=O)CCCC(COC(=O)CCCCCCC)COC(=O)CCCCCCC (centres unmarked) [Compound 52]
0.01154 | 77.71 nm | 77.94% | 6.091 | CCCCC/C=C\C/C=C\CCCCCCCC(=O)OCC(COC(=O)CCCC(COC(=O)CCCCCCC)COC(=O)CCCCCCC)COC(=O)OCCCN(CCO)C1CCCCC1 (centres unmarked) [Compound 106]
0.086 | 100.8 nm | 89.09% | 7.287 | CCCCCCCCCCC(=O)OCC(COC(=O)CCCCCN(CCO)C1CCC1)COC(=O)CCCC(COC(=O)CCCCCCC)COC(=O)CCCCCCC (centres unmarked) [Compound 49]
 |  |  | 6.999 | CCCCCCCCCCCCC(=O)OCC(COC(=O)CCCCCN(CCO)C1CCC1)COC(=O)CCCC(COC(=O)CCCCCCC)COC(=O)CCCCCCC (centres unmarked) [Compound 63]
0.087 | 108.4 nm | 93.21% | 7.229 | CCCCCCCCCCC(=O)OCC(COC(=O)CCCCN(CCO)C1CCC1)COC(=O)CCCC(COC(=O)CCCCCCC)COC(=O)CCCCCCC (centres unmarked) [Compound 48]
 |  |  | 6.111 | CCCCCCCCCCCCCCCCCC(=O)OCC(COC(=O)CCCC(COC(=O)CCCCCCC)COC(=O)CCCCCCC)COC(=O)OCCCN(CCO)C1CCCCC1 (centres unmarked) [Compound 65]
 |  |  | 6.895 | CCCCCCCCCCCCCCCC(=O)OCC(COC(=O)CCCCN(CCO)C1CCC1)COC(=O)CCCC(COC(=O)CCCCCCC)COC(=O)CCCCCCC (centres unmarked) [Compound 41]
 |  |  | 6.887 | CCCCCCCCCC(=O)OCC(COC(=O)CCCCCCN(CCO)C1CCC1)COC(=O)CCCC(COC(=O)CCCCCCC)COC(=O)CCCCCCC (centres unmarked) [Compound 79]
0.158 | 89.62 nm | 91.68% | 7.175 | CCCCCCCCCCC(=O)OCC(COC(=O)CCCCCCN(CCO)C1CCC1)COC(=O)CCCC(COC(=O)CCCCCCC)COC(=O)CCCCCCC (centres unmarked) [Compound 50]
 |  |  | 6.812 | CCCCCCCC(=O)OCC(CCCC(=O)OCC(COC(=O)CCCCCCC)COC(=O)CCCCCCCN(CCO)C1CCC1)COC(=O)CCCCCCC (centres unmarked) [Compound 44]
0.196 | 105.4 nm | 87.35% | 6.837 | CCCCCCCCCCCCC(=O)OCC(COC(=O)CCCCCCN(CCO)C1CCC1)COC(=O)CCCC(COC(=O)CCCCCCC)COC(=O)CCCCCCC (centres unmarked) [Compound 64]
 |  |  | 6.547 | CCCCCCCCCCCCCCCCCC(=O)OCC(COC(=O)CCCCN(CCO)C1CCCCCC1)COC(=O)CCCC(COC(=O)CCCCCCC)COC(=O)CCCCCCC (centres unmarked) [Compound 75]
 |  |  | 7.076 | CCCCCCCCCCCCCCCCCC(=O)OCC(COC(=O)CCCCN(CCO)C1CCC1)COC(=O)CCCC(COC(=O)CCCCCCC)COC(=O)CCCCCCC (centres unmarked) [Compound 72]
 |  |  | 7.288 | CCCCCCCCCCCC(=O)OCC(COC(=O)CCCCCN(CCO)C1CCC1)COC(=O)CCCC(COC(=O)CCCCCCC)COC(=O)CCCCCCC (centres unmarked) [Compound 51]
 |  |  | 6.349 | CCCCCCCCC(=O)OCC(COC(=O)CCCC(COC(=O)CCCCCCC)COC(=O)CCCCCCC)COC(=O)OCCCN(CCO)C1CCC1 (centres unmarked) [Compound 67]
 |  |  | 6.858 | CCCCCCCCCC(=O)OCC(COC(=O)CCCCCCCN(CCO)C1CCC1)COC(=O)CCCC(COC(=O)CCCCCCC)COC(=O)CCCCCCC (centres unmarked) [Compound 80]

From patent publication US20240252650A1, “LIPID COMPOUNDS AND LIPID NANOPARTICLE COMPOSITIONS” (SUZHOU ABOGEN BIOSCIENCES CO., LTD., priority 2021, published 2024)
